Tests used:
Assay in all cases: Greenhouse post-emergence weed control, percent injury vs untreated control
Conditions in all cases: 504 h
[1] = system: Amaranthus tamariscinus (AMATA); format: in vivo
Description: (§1) Glufosinate was used as a commercial SL formulation containing 280 g ai/l of glufosinate (Liberty 280 SL, BASF). While the PPO herbicide Spartan containing 480 g ai/l sulfentrazone was used (Spartan 480 SC, FMC) formulation. • The evaluation for plant injury or damage caused by the chemical compositions was carried out using a scale from 0-100% when compared with the untreated control plants. Here, 0 means no damage and 100 means complete destruction of the plants.
(§2) 22., E=X+Y−(X*Y/100), where • X=effect in percent using herbicide A at an application rate of a; • Y=effect in percent using herbicide B at an application rate of b; • E=expected effect (in %) of A+B at application rates a+b.
(§3) The value E corresponds to the effect (plant damage or injury) which is to be expected if the activity of the individual compounds is just additive. If the observed effect is higher than the value E calculated according to Colby, a synergistic effect is present.
(§4) Seedlings of Palmer amaranth (Amaranthus palmeri; AMAPA), common waterhemp (Amaranthuis tameriscinus; AMATA), and barnyardgrass (Echinochloa crus-galli; ECHCG) were treated with postemergence applications of either glufosinate at 246 g ai/ha, sulfentrazone at 4.2 or 42 g ai/ha, or the combination of glufosinate (246 g ai/ha) and sulfentrazone (4.2, 42 g ai/ha), respectively, when they were 5-10 cm in height. All glufosinate treatments contained 1% (w/v) ammonium sulfate and solo sulfentrazone treatments contained 1% (v/v) MSO surfactant. Plants were placed in a completely randomized design with four replications per treatment. Percent injury data was collected 21 days after treatment (DAT).

[2] = system: Echinochloa crus-galli (ECHCG); format: in vivo
Description: as §1, §2, §3, §4

[3] = system: Amaranthus Palmerii (AMAPA); format: in vivo, Amaranthus palmeri
Description: as §1, §2, §3
Seedlings of Palmer amaranth (Amaranthus palmeri; AMAPA), common waterhemp (Amaranthuis tameriscinus; AMATA), and barnyardgrass (Echinochloa crus-galli; ECHCG) were treated with postemergence applications of either glufosinate at 246 g ai/ha, sulfentrazone at 4.2 or 42 g ai/ha, or the combination of glufosinate (246 g ai/ha) and sulfentrazone (4.2, 42 g ai/ha), respectively, when they were 5-10 cm in height. […]

[4] = read-out: Solo Glufosinate (246 g ai/ha) % activity

| SMILES | inhibition at 246 g/ha [1, 4] [%] | inhibition at 246 g/ha [2, 4] [%] | inhibition at 246 g/ha [3, 4] [%] | inhibition at 42 g/ha ([1]; AMATA, 42 g ai/ha, 1% (v/v) MSO, 21 DAT, read-out: Solo Sulfentrazone (42 g ai/ha) % activity) [%] | inhibition at 42 g/ha ([2]; ECHCG, 42 g ai/ha, 1% (v/v) MSO, 21 DAT, read-out: Solo Sulfentrazone (42 g ai/ha) % activity) [%] | inhibition at 4.2 g/ha ([3]; AMAPA, 4.2 g ai/ha, 1% (v/v) MSO, 21 DAT, 0 = no damage, 100 = complete destruction, read-out: Solo Sulfentrazone (4.2 g ai/ha) % activity) [%] |
| --- | --- | --- | --- | --- | --- | --- |
| CP(=O)(O)CCC(N)C(=O)O (racemic) [Glufosinate, (2RS)-2-amino-4-[hydroxy(methyl)phosphinoyl]butyric acid] | 79 | 57 | 79 | – | – | – |
| Cc1nn(-c2cc(NS(C)(=O)=O)c(Cl)cc2Cl)c(=O)n1C(F)F [Sulfentrazone, sulfentrazone] | – | – | – | 33 | 23 | 20 |
